# Test results as given in patent US8435980B2 (AbbVie Inc., priority 2009, dated 2013).
# Biological target: T1, Cdc7 (BEV coexpressed huCDC7/DBF4) (Homo sapiens, UniProt O00311)
# T1 construct: made in house; host or cells: BEV (baculovirus expression vector) co-expression; insect cells are implied but no cell line is named
# Test: Cdc7 enzyme inhibition assay ([33P]ATP, biotinylated peptide substrate, FlashPlate)
# Assay type: biochemical
# Conditions: Table 3; enzyme inhibition data (Ki)
# Protocol: Cdc7 (BEV coexpressed huCDC7/DBF4) is prepared internally. Cdc7 assays are conducted as follows with final concentrations as listed. […] Reactions are quenched after 1 hr by the addition of 90 μL stop buffer (50 mM EDTA, 2M NaCl). […] (Ki) for exemplary compounds.
# T1 sequence (O00311 whole entry): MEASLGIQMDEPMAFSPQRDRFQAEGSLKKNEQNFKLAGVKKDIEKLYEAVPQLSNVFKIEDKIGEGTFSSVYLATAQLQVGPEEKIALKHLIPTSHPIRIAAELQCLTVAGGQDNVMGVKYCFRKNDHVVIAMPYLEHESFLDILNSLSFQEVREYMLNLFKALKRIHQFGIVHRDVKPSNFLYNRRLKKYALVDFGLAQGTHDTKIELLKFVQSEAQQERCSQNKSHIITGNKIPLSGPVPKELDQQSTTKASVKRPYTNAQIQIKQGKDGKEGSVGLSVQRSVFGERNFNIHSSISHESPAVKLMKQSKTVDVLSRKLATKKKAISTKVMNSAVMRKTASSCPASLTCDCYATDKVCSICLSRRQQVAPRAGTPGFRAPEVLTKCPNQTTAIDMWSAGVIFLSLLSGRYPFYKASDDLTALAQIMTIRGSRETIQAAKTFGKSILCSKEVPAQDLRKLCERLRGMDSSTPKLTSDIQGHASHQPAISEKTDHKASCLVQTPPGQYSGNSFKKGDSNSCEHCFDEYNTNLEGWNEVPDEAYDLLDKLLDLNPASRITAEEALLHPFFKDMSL
# T1 sequence (Q9UBU7 whole entry partner): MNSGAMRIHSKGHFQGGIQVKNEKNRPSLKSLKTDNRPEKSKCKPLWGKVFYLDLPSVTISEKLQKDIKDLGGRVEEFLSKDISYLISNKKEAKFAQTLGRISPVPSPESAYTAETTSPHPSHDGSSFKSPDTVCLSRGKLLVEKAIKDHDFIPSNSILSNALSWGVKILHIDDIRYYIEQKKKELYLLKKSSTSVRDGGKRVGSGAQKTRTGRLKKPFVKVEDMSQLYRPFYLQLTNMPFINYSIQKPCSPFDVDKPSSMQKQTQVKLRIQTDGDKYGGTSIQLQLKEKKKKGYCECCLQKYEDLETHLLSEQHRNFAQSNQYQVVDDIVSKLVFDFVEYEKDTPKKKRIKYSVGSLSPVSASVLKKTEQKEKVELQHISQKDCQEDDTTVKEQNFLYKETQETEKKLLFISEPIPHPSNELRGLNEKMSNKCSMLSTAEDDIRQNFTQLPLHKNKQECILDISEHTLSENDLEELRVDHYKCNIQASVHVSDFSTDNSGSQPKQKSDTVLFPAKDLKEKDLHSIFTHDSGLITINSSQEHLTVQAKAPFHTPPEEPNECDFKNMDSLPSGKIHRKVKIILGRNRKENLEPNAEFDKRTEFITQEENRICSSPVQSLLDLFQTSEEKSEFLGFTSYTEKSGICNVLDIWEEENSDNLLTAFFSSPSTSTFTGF
row,Compound,Ki [nM]
1,"Clc1cc(-c2c[nH]c3ncccc23)cc(N[C@H]2CC[C@H](NC3CCN(C4CCCCC4)CC3)CC2)n1 [Example 157, trans-N-[6-chloro-4-(1H-pyrrolo[2,3-b]pyridin-3-yl)pyridin-2-yl]-N′-(1-cyclohexylpiperidin-4-yl)cyclohexane-1,4-diamine]",< 10
2,"Clc1cc(-c2c[nH]c3ncccc23)cc(NC2CCC(C3CCNCC3)CC2)n1 (stereo not drawn) [Example 159, 6-chloro-N-[4-(piperidin-4-yl)cyclohexyl]-4-(1H-pyrrolo[2,3-b]pyridin-3-yl)pyridin-2-amine]",< 10
3,"O=C(N[C@H]1CC[C@H](Nc2cc(-c3c[nH]c4ncccc34)cc(Cl)n2)CC1)C1CNC1 [Example 160, N-(trans-4-{[6-chloro-4-(1H-pyrrolo[2,3-b]pyridin-3-yl)pyridin-2-yl]amino}cyclohexyl)azetidine-3-carboxamide]",< 10
4,"CC(=O)NC1CCC(N[C@H]2CC[C@H](Nc3cc(-c4c[nH]c5ncccc45)cc(Cl)n3)CC2)CC1 (stereo partly drawn) [Example 161, N-{4-[(trans-4-{[6-chloro-4-(1H-pyrrolo[2,3-b]pyridin-3-yl)pyridin-2-yl]amino}cyclohexyl)amino]cyclohexyl}acetamide]",< 10
5,"O=C(NC1CCC(N[C@H]2CC[C@H](Nc3cc(-c4c[nH]c5ncccc45)cc(Cl)n3)CC2)CC1)C1CC1 (stereo partly drawn) [Example 162, N-{4-[(trans-4-{[6-chloro-4-(1H-pyrrolo[2,3-b]pyridin-3-yl)pyridin-2-yl]amino}cyclohexyl)amino]cyclohexyl}cyclopropanecarboxamide]",< 10
6,"CC(=O)N1CCC(C2CCC(Nc3cc(-c4c[nH]c5ncccc45)cc(Cl)n3)CC2)CC1 (stereo not drawn) [Example 163, 1-[4-(4-{[6-chloro-4-(1H-pyrrolo[2,3-b]pyridin-3-yl)pyridin-2-yl]amino}cyclohexyl)piperidin-1-yl]ethanone]",< 10
7,"CC(=O)NCCS(=O)(=O)NC1CCCC(Nc2cc(-c3c[nH]c4ncccc34)cc(Cl)n2)C1 (stereo not drawn) [Example 164, N-{2-[(3-{[6-chloro-4-(1H-pyrrolo[2,3-b]pyridin-3-yl)pyridin-2-yl]amino}cyclohexyl)sulfamoyl]ethyl}acetamide]",< 10
8,"O=C(NCCS(=O)(=O)NC1CCCC(Nc2cc(-c3c[nH]c4ncccc34)cc(Cl)n2)C1)C1CC1 (stereo not drawn) [Example 165, N-{2-[(3-{[6-chloro-4-(1H-pyrrolo[2,3-b]pyridin-3-yl)pyridin-2-yl]amino}cyclohexyl)sulfamoyl]ethyl}cyclopropanecarboxamide]",< 10
9,"O=C(N[C@H]1CC[C@H](Nc2cc(-c3c[nH]c4ncccc34)cc(Cl)n2)CC1)C1CN(Cc2ccc(F)cc2)C1 [Example 166, N-(trans-4-{[6-chloro-4-(1H-pyrrolo[2,3-b]pyridin-3-yl)pyridin-2-yl]amino}cyclohexyl)-1-(4-fluorobenzyl)azetidine-3-carboxamide]",< 10
10,"CS(=O)(=O)N1CC(C(=O)N[C@H]2CC[C@H](Nc3cc(-c4c[nH]c5ncccc45)cc(Cl)n3)CC2)C1 [Example 167, N-(trans-4-{[6-chloro-4-(1H-pyrrolo[2,3-b]pyridin-3-yl)pyridin-2-yl]amino}cyclohexyl)-1-(methylsulfonyl)azetidine-3-carboxamide]",< 10
11,"Clc1cc(-c2c[nH]c3nccc(Cl)c23)cc(NC2CCCCC2)n1 [Example 168, 6-chloro-4-(4-chloro-1H-pyrrolo[2,3-b]pyridin-3-yl)-N-cyclohexylpyridin-2-amine]",< 10
12,"O=S(=O)(CCNC1CCC1)NC1CCCC(Nc2cc(-c3c[nH]c4ncccc34)cc(Cl)n2)C1 (stereo not drawn) [Example 170, N-(3-{[6-chloro-4-(1H-pyrrolo[2,3-b]pyridin-3-yl)pyridin-2-yl]amino}cyclohexyl)-2-(cyclobutylamino)ethanesulfonamide]",< 10
13,"Clc1cc(-c2c[nH]c3ncc(-c4cn[nH]c4)cc23)cc(NC2CCCCC2)n1 [Example 171, 6-chloro-N-cyclohexyl-4-[5-(1H-pyrazol-4-yl)-1H-pyrrolo[2,3-b]pyridin-3-yl]pyridin-2-amine]",< 10
14,"O=C(NCCS(=O)(=O)NC1CCCC(Nc2cc(-c3c[nH]c4ncccc34)cc(Cl)n2)C1)c1cnccn1 (stereo not drawn) [Example 172, N-{2-[(3-{[6-chloro-4-(1H-pyrrolo[2,3-b]pyridin-3-yl)pyridin-2-yl]amino}cyclohexyl)sulfamoyl]ethyl}pyrazine-2-carboxamide]",< 10
15,"Clc1cc(-c2c[nH]c3ncc(Br)cc23)cc(NC2CCCCC2)n1 [Example 173, 4-(5-bromo-1H-pyrrolo[2,3-b]pyridin-3-yl)-6-chloro-N-cyclohexylpyridin-2-amine]",< 10
16,"CC(=O)NC1CCC(CC2CCC(Nc3cc(-c4c[nH]c5ncccc45)cc(Cl)n3)CC2)CC1 (stereo not drawn) [Example 174, N-{4-[(4-{[6-chloro-4-(1H-pyrrolo[2,3-b]pyridin-3-yl)pyridin-2-yl]amino}cyclohexyl)methyl]cyclohexyl}acetamide]",< 10
17,"O=C(C1CC1)N1CCC(NC2CCC(Nc3cc(-c4c[nH]c5ncccc45)cc(Cl)n3)CC2)CC1 (stereo not drawn) [Example 175, {4-[(4-{[6-chloro-4-(1H-pyrrolo[2,3-b]pyridin-3-yl)pyridin-2-yl]amino}cyclohexyl)amino]piperidin-1-yl}(cyclopropyl)methanone]",< 10

row,Compound,Ki [nM]
1,"Cn1cc(-c2cnc3[nH]cc(-c4cc(Cl)nc(NC5CCCCC5)c4)c3c2)cn1 [Example 176, 6-chloro-N-cyclohexyl-4-[5-(1-methyl-1H-pyrazol-4-yl)-1H-pyrrolo[2,3-b]pyridin-3-yl]pyridin-2-amine]",< 10
2,"COc1cnc2[nH]cc(-c3cc(Cl)nc(NC4CCCCC4)c3)c2c1 [Example 178, 6-chloro-N-cyclohexyl-4-(5-methoxy-1H-pyrrolo[2,3-b]pyridin-3-yl)pyridin-2-amine]",< 10
3,"NCCS(=O)(=O)N[C@H]1CC[C@H](Nc2cc(-c3c[nH]c4ncccc34)cc(Cl)n2)CC1 [Example 179, 2-amino-N-(trans-4-{[6-chloro-4-(1H-pyrrolo[2,3-b]pyridin-3-yl)pyridin-2-yl]amino}cyclohexyl)ethanesulfonamide]",< 10
4,"Oc1cnc2[nH]cc(-c3cc(Cl)nc(NC4CCCCC4)c3)c2c1 [Example 180, 3-[2-chloro-6-(cyclohexylamino)pyridin-4-yl]-1H-pyrrolo[2,3-b]pyridin-5-ol]",< 10
5,"Clc1cc(-c2c[nH]c3ncccc23)cc(NC2CCC(C3CCCNC3)CC2)n1 (stereo not drawn) [Example 181, 6-chloro-N-[4-(piperidin-3-yl)cyclohexyl]-4-(1H-pyrrolo[2,3-b]pyridin-3-yl)pyridin-2-amine]",< 10
6,"Clc1cc(-c2c[nH]c3ncccc23)cc(NC2CCC(C3CCN(C4CCC4)CC3)CC2)n1 (stereo not drawn) [Example 182, 6-chloro-N-[4-(1-cyclobutylpiperidin-4-yl)cyclohexyl]-4-(1H-pyrrolo[2,3-b]pyridin-3-yl)pyridin-2-amine]",< 10
7,"CS(=O)(=O)N1CCC(C2CCC(Nc3cc(-c4c[nH]c5ncccc45)cc(Cl)n3)CC2)CC1 (stereo not drawn) [Example 183, 6-chloro-N-{4-[1-(methylsulfonyl)piperidin-4-yl]cyclohexyl}-4-(1H-pyrrolo[2,3-b]pyridin-3-yl)pyridin-2-amine]",< 10
8,"CN1CCC(C2CCC(Nc3cc(-c4c[nH]c5ncccc45)cc(Cl)n3)CC2)CC1 (stereo not drawn) [Example 184, 6-chloro-N-[4-(1-methylpiperidin-4-yl)cyclohexyl]-4-(1H-pyrrolo[2,3-b]pyridin-3-yl)pyridin-2-amine]",< 10
9,"CN1CCC(C2CCC(N(C)c3cc(-c4c[nH]c5ncccc45)cc(Cl)n3)CC2)CC1 (stereo not drawn) [Example 185, 6-chloro-N-methyl-N-[4-(1-methylpiperidin-4-yl)cyclohexyl]-4-(1H-pyrrolo[2,3-b]pyridin-3-yl)pyridin-2-amine]",< 10
10,"CS(=O)(=O)N1CCCC(C2CCC(Nc3cc(-c4c[nH]c5ncccc45)cc(Cl)n3)CC2)C1 (stereo not drawn) [Example 186, 6-chloro-N-{4-[1-(methylsulfonyl)piperidin-3-yl]cyclohexyl}-4-(1H-pyrrolo[2,3-b]pyridin-3-yl)pyridin-2-amine]",< 10
11,"Clc1cc(-c2c[nH]c3ncc(-c4cnn(CCN5CCOCC5)c4)cc23)cc(NC2CCCCC2)n1 [Example 187, 6-chloro-N-cyclohexyl-4-(5-{1-[2-(morpholin-4-yl)ethyl]-1H-pyrazol-4-yl}-1H-pyrrolo[2,3-b]pyridin-3-yl)pyridin-2-amine]",< 10
12,"O=C(C1CC1)N1CCCC(C2CCC(Nc3cc(-c4c[nH]c5ncccc45)cc(Cl)n3)CC2)C1 (stereo not drawn) [Example 188, [3-(4-{[6-chloro-4-(1H-pyrrolo[2,3-b]pyridin-3-yl)pyridin-2-yl]amino}cyclohexyl)piperidin-1-yl](cyclopropyl)methanone]",< 10
13,"Clc1cc(-c2c[nH]c3ncccc23)cc(NC2CCC(C3CCCN(C4CCC4)C3)CC2)n1 (stereo not drawn) [Example 189, 6-chloro-N-[4-(1-cyclobutylpiperidin-3-yl)cyclohexyl]-4-(1H-pyrrolo[2,3-b]pyridin-3-yl)pyridin-2-amine]",< 10
14,"Clc1cc(-c2c[nH]c3ncccc23)cc(NC2CCC(C3CCNC3)CC2)n1 (stereo not drawn) [Example 190, 6-chloro-N-[4-(pyrrolidin-3-yl)cyclohexyl]-4-(1H-pyrrolo[2,3-b]pyridin-3-yl)pyridin-2-amine]",< 10
15,"CN1CCC(N2CCC(Nc3cc(-c4c[nH]c5ncccc45)cc(Cl)n3)CC2)CC1 [Example 191, N-[6-chloro-4-(1H-pyrrolo[2,3-b]pyridin-3-yl)pyridin-2-yl]-1′-methyl-1,4′-bipiperidin-4-amine]",< 10
16,"O=C(NCCS(=O)(=O)N[C@H]1CC[C@H](Nc2cc(-c3c[nH]c4ncccc34)cc(Cl)n2)CC1)c1ccccc1 [Example 193, N-{2-[(trans-4-{[6-chloro-4-(1H-pyrrolo[2,3-b]pyridin-3-yl)pyridin-2-yl]amino}cyclohexyl)sulfamoyl]ethyl}benzamide]",< 10
